# Assay results reported in patent US20180155344A1, “TRICYCLIC PIPERIDINE COMPOUNDS” (ACTELION PHARMACEUTICALS LTD, priority 2015, published 2018).
# Molecular target: T1, human TPH1 (Homo sapiens, UniProt P17752)
# T1 sequence (P17752 1-444): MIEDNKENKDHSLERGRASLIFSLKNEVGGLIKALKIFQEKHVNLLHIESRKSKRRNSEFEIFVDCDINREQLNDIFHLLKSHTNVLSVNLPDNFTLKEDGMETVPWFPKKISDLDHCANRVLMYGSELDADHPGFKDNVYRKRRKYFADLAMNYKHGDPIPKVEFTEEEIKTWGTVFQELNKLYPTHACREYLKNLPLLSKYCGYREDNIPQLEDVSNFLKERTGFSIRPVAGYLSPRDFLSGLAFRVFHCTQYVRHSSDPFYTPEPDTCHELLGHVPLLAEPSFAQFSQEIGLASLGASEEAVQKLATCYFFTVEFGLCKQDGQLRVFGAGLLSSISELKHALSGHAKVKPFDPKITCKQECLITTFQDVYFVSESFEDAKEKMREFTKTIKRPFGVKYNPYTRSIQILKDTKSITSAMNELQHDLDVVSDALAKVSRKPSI
# Experiment: biochemical
# Conditions: not given
# Summary of the method: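 Inhibition is derived from 5-hydroxy-L-tryptophan fluorescence (540 nm emission, 300 nm excitation) after perchloric acid stop, relative to DMSO vehicle. Recombinant full-length human enzyme (40-80 nM) reacts with 40 μM tryptophan plus 100 μM methyltetrahydropterin, pH 7.6 Tris/DTT/catalase, 15° C, 60 min.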
row,IC50 [nM],Compound
1,29,"O=C(COc1ccc(N2CCOCC2)nc1Cl)N1CCc2nc3cnccn3c2C1c1ccc(C2CC2)cc1F (centres unmarked) [Example 17.1.1, 2-((2-chloro-6-morpholinopyridin-3-yl)oxy)-1-(1-(4-cyclopropyl-2-fluorophenyl)-3,4-dihydropyrido[4′,3′:4,5]imidazo[1,2-a]pyrazin-2(1H)-yl)ethan-1-one]"
2,19,"COc1ccc(C2c3c(nc4cc(C(F)(F)F)ccn34)CCN2C(=O)COc2cccc(C(F)(F)F)c2Cl)cc1OC (centres unmarked) [Example 3.1.13, 2-(2-chloro-3-(trifluoromethyl)phenoxy)-1-(1-(3,4-dimethoxyphenyl)-7-(trifluoromethyl)-3,4-dihydroimidazo[1,2-a:5,4-c′]dipyridin-2(1H)-yl)ethan-1-one]"
3,74,"COc1ccc(C2c3c(nc4cc(C(F)(F)F)ccn34)CCN2C(=O)COc2ccc(CN3CCOCC3)cc2Cl)nc1 (centres unmarked) [Example 3.52.2, 2-(2-chloro-4-(morpholinomethyl)phenoxy)-1-(1-(5-methoxypyridin-2-yl)-7-(trifluoromethyl)-3,4-dihydroimidazo[1,2-a:5,4-c′]dipyridin-2(1H)-yl)ethan-1-one]"
4,34,"COc1ccc(C2c3c(nc4cc(Cl)ccn34)CCN2C(=O)COc2ccc3ccccc3c2)cc1OCCO (centres unmarked) [Example 2.13.1, 1-(7-chloro-1-(3-(2-hydroxyethoxy)-4-methoxyphenyl)-3,4-dihydroimidazo[1,2-a:5,4-c′]dipyridin-2(1H)-yl)-2-(naphthalen-2-yloxy)ethan-1-one]"
5,43,"CN(C)C(=O)c1csc(C2c3c(nc4cccnn34)CCN2C(=O)COc2ccc(N3CCOCC3)nc2Cl)c1 (centres unmarked) [Example 16.3.1, 5-(8-(2-((2-Chloro-6-morpholinopyridin-3-yl)oxy)acetyl)-6,7,8,9-tetrahydropyrido[4′,3′:4,5]imidazo[1,2-b]pyridazin-9-yl)-N,N-dimethylthiophene-3-carboxamide]"
6,89,"COc1ccc(C2c3c(nc4ccc(C)cn34)CCN2C(=O)COc2ccc(Cl)cc2Cl)cc1OC (centres unmarked) [Example 7.1.1, 2-(2,4-dichlorophenoxy)-1-(1-(3,4-dimethoxyphenyl)-8-methyl-3,4-dihydroimidazo[1,2-a:5,4-c′]dipyridin-2(1H)-yl)ethan-1-one]"
7,8,"COc1ccc(C2c3c(nc4cc(Cl)ccn34)CCN2C(=O)COc2ccc(CN3CCOCC3)cc2Cl)c(F)c1 (centres unmarked) [Example 2.3.1, 1-(7-chloro-1-(2-fluoro-4-methoxyphenyl)-3,4-dihydroimidazo[1,2-a:5,4-c′]dipyridin-2(1H)-yl)-2-(2-chloro-4-(morpholinomethyl)phenoxy)ethan-1-one]"
8,10,"COc1cc(F)c(C2c3c(nc4cc(C(F)(F)F)ccn34)CCN2C(=O)COc2ccc(C3(N)COC3)cc2Cl)cc1OC (centres unmarked) [Example 3.18.9, 2-(4-(3-aminooxetan-3-yl)-2-chlorophenoxy)-1-(1-(2-fluoro-4,5-dimethoxyphenyl)-7-(trifluoromethyl)-3,4-dihydroimidazo[1,2-a:5,4-c′]dipyridin-2(1H)-yl)ethan-1-one]"
9,154,"COc1ccc(C2c3c(nc4cc(Cl)ccn34)CCN2C(=O)COc2ccc(CN3CCOCC3)cc2Cl)cc1O (centres unmarked) [Example 2.8.2, 1-(7-chloro-1-(3-hydroxy-4-methoxyphenyl)-3,4-dihydroimidazo[1,2-a:5,4-c′]dipyridin-2(1H)-yl)-2-(2-chloro-4-(morpholinomethyl)phenoxy)ethan-1-one]"
10,8,"O=C(COc1ccc(N2CCOCC2)nc1Cl)N1CCc2nc3cccnn3c2C1c1ccc(C2CC2)cc1F (centres unmarked) [Example 16.1.2, 2-((2-chloro-6-morpholinopyridin-3-yl)oxy)-1-(9-(4-cyclopropyl-2-fluorophenyl)-6,9-dihydropyrido[4′,3′:4,5]imidazo[1,2-b]pyridazin-8(7H)-yl)ethan-1-one]"
11,290,"O=C(COc1ccc(C(F)(F)F)nc1Cl)N1CCc2nc3cccnn3c2C1c1ncc(C2CC2)cc1F (centres unmarked) [Example 16.2.6, 2-((2-chloro-6-(trifluoromethyl)pyridin-3-yl)oxy)-1-(9-(5-cyclopropyl-3-fluoropyridin-2-yl)-6,9-dihydropyrido[4′,3′:4,5]imidazo[1,2-b]pyridazin-8(7H)-yl)ethan-1-one]"
12,17,"O=C(COc1ccc2ccccc2c1)N1CCc2nc3cc(C(F)(F)F)ccn3c2C1c1ccccc1F (centres unmarked) [Example 3.35.1, 1-(1-(2-fluorophenyl)-7-(trifluoromethyl)-3,4-dihydroimidazo[1,2-a:5,4-c′]dipyridin-2(1H)-yl)-2-(naphthalen-2-yloxy)ethan-1-one]"
13,23,"Cc1ccc(C2c3c(nc4cc(C(F)(F)F)ccn34)CCN2C(=O)COc2ccc(CN3CCOCC3)cc2Cl)cc1C (centres unmarked) [Example 3.10.2, 2-(2-chloro-4-(morpholinomethyl)phenoxy)-1-(1-(3,4-dimethylphenyl)-7-(trifluoromethyl)-3,4-dihydroimidazo[1,2-a:5,4-c′]dipyridin-2(1H)-yl)ethan-1-one]"
14,20,"COc1ccc(C2c3c(nc4cc(C(F)(F)F)ccn34)CCN2C(=O)COc2cccnc2Br)cc1OC (centres unmarked) [Example 3.1.17, 2-((2-bromopyridin-3-yl)oxy)-1-(1-(3,4-dimethoxyphenyl)-7-(trifluoromethyl)-3,4-dihydroimidazo[1,2-a:5,4-c′]dipyridin-2(1H)-yl)ethan-1-one]"
15,66,"COc1ccc(C2c3c(nc4cc(Cl)ccn34)CCN2C(=O)COc2ccc(CN3CCOCC3)cc2Cl)cc1OC (centres unmarked) [Example 2.1.2, 1-(7-chloro-1-(3,4-dimethoxyphenyl)-3,4-dihydroimidazo[1,2-a:5,4-c′]dipyridin-2(1H)-yl)-2-(2-chloro-4-(morpholinomethyl)phenoxy)ethan-1-one]"
16,155,"Cc1cc(C2c3c(nc4cc(C(F)(F)F)ccn34)CCN2C(=O)COc2ccc3ccccc3c2)ccn1 (centres unmarked) [Example 3.57.1, 1-(1-(2-methylpyridin-4-yl)-7-(trifluoromethyl)-3,4-dihydroimidazo[1,2-a:5,4-c′]dipyridin-2(1H)-yl)-2-(naphthalen-2-yloxy)ethan-1-one]"
17,180,"COc1ccc(C2c3c(nc4ccccn34)CCN2C(=O)COc2ccc(C)cc2C)cc1OC (centres unmarked) [Example 1.1.2, 1-(1-(3,4-dimethoxyphenyl)-3,4-dihydroimidazo[1,2-a:5,4-c′]dipyridin-2(1H)-yl)-2-(2,4-dimethylphenoxy)ethan-1-one]"
18,20,"O=C(COc1ccc(CN2CCOCC2)cc1Cl)N1CCc2nc3cc(C(F)(F)F)ccn3c2C1c1ccc(Cl)cc1 (centres unmarked) [Example 3.30.2, 2-(2-chloro-4-(morpholinomethyl)phenoxy)-1-(1-(4-chlorophenyl)-7-(trifluoromethyl)-3,4-dihydroimidazo[1,2-a:5,4-c′]dipyridin-2(1H)-yl)ethan-1-one]"
19,56,"O=C(COc1ccc(N2CCOCC2)nc1Cl)N1CCc2nc3ncccn3c2C1c1ccc(C2CC2)cc1F (centres unmarked) [Example 18.1.1, 2-((2-chloro-6-morpholinopyridin-3-yl)oxy)-1-(6-(4-cyclopropyl-2-fluorophenyl)-8,9-dihydropyrido[4′,3′:4,5]imidazo[1,2-a]pyrimidin-7(6H)-yl)ethan-1-one]"

# Same assay, conditions: Table 1; full length human TPH1, 40 μM L-tryptophan, 15° C., 60 minutes; mean if determined several times
row,Compound,IC50 [nM]
1,"1-(1-(4-(aminomethyl)phenyl)-7-(trifluoromethyl)-3,4-dihydroimidazo[1,2-a:5,4-c′]dipyridin-2(1H)-yl)-2-(2-chloro-4-(morpholinomethyl)phenoxy)ethan-1-one [Example 3.31.2]",145
